According to patent US20210323914A1, “IONIZABLE CATIONIC LIPID FOR RNA DELIVERY” (Arcturus Therapeutics, Inc., priority 2017, published 2021):

Test system: not listed separately
Experiment: Measured pKa of cationic lipids in LNP or micellar formulations by TNS fluorescence
Assay type: physicochemical
Details: measured in the Formulation milieu, TNS fluorescence, 1 mM total lipids
Description: pKa of cationic lipids in LNP or micellar Formulations were measured by the procedure of Jayaraman, 2012, Angew. Chem. Int. Ed., 51:8529-33, hereby incorporated by reference. Lipid micelles or LNPs are diluted to 1 mM total lipids in universal buffer with a pH range between 3 and 12 in presence of 0.06 mg/mL 6-(p-toluidino)-2-naphthalenesulfonic acid sodium salt (TNS) reagent (Sigma Aldrich), a pH sensitive fluorescence probe. The anionic TNS molecule fluoresces when associated with the surface of positively charged membranes but is not fluorescent when free in solution, allowing measurement of pKa. The TNS signal is measured on a spectral plate reader. The TNS signal is plotted as function of the pH and analyzed using a non-linear (Boltzman) to determine the pKa.
Reagents used in the assay include • Hepes free acid, CAS: 7365-45-9 (VWR, 0511-1KG or equivalent) • MES, HPLC grade: (Sigma 105228-100G or equivalent) • Ammonium acetate, HPLC grade: (Sigma 90335-100 mL or equivalent) • Sodium chloride, HPLC grade (VWR EM-MX0475-1 or equivalent) • TNS (Sigma-Aldrich T9792-250 mg or equivalent) • Hydrochloric acid • DMSO • DPBS without calcium and magnesium (GE, SH30028.02 or equivalent) • H2O, HPLC grade (OmniSolv, WX0004-1 or equivalent)
To prepare a stock solution of Universal Buffer (UB) in a polystyrene sterile storage bottle, prepare 1 L using the following table.
Reagents are sterile filtered through a 0.2 μm filter. Preparation of UB solution includes adding 5 mL of 1 M HCl to a 350 mL stock solution.
To prepare a pH ladder, centrifuge tubes (50 mL) with 20 mL UB buffer are used. (pH ˜3) and differing amounts of 2 N NaOH. Stock solutions of TNS at 1 mg/mL in DMSO. 60 μL of TNS at 1 mg/mL is added to 940 μL water to reach a working solution concentration of 0.06 mg/mL. Five test samples, 1 mL of LNP sample in PBS at 1 mM total lipid, and 1 reference sample are analyzed per plate. Samples at different pH values are prepared in wells in which 25 μL of 0.06 mg/mL TNS is added. 15 μL of test samples is added per well. The microplate is incubated for 15 minutes at room temperature in the dark. TNS template can be used to format data from the plate reader. Perform non-linear (Boltzman) regression analysis of the samples in Origin Pro 8 or equivalent software.

Point of comparison: CCCCCC/C=C\COC(=O)CCCCCN(CCCCC(=O)OC(CCCCCCC)CCCCCCC)C(=O)SCCN(C)C, pKa 5.9. Against it:
- CCCCCC(CCCCC)OC(=O)CCCN(CCCC(=O)OC(CCCCC)CCCCC)C(=O)SCCCN(C)C — higher, 6.8
- CCCCCC(CCCCC)OC(=O)CCCN(CCCC(=O)OC(CCCCC)CCCCC)C(=O)SCCCN(CC)CC — lower, 5.56
- CCCCCCCC(CCCCCCC)OC(=O)CCCN(CCCC(=O)OC(CCCCCCC)CCCCCCC)C(=O)SCCCN(C)C — higher, 6.38
- CCCCCCCC(CCCCCCC)OC(=O)CCCN(CCCC(=O)OC(CCCCCCC)CCCCCCC)C(=O)SCCCN(CC)CC — higher, 6.31
- CCC/C=C/CCC(CC/C=C/CCC)OC(=O)CCCN(CCCCCC(=O)OC/C=C\CCCCCC)C(=O)SCCN(C)C — within 0.2 log units, 5.93
- CCCCCC/C=C\COC(=O)CCCCCN(CCCC(=O)OC(CCCCCCCC)CCCCCCCC)C(=O)SCCN(C)C — lower, 5.38
- CCCCCC/C=C\COC(=O)CCCCCCCN(CCCC(=O)OC(CCCCCC)CCCCCC)C(=O)SCCN(C)C — lower, 5.61
- CCCCCC/C=C\COC(=O)CCCCCCCN(CCCC(=O)OC(CCCCCCC)CCCCCCC)C(=O)SCCN(C)C — lower, 5.38
- CCCCCC/C=C\COC(=O)CCCCCN(CCCCCC(=O)OC(CCCCCCC)CCCCCCC)C(=O)SCCN(C)C — within 0.2 log units, 5.93
- CCC/C=C/CCC(CC/C=C/CCC)OC(=O)CCCCCN(CCCCCC(=O)OC/C=C\CCCCCC)C(=O)SCCN(C)C — within 0.2 log units, 5.94
- CCCCCC/C=C\COC(=O)CCCCCN(CCCCCC(=O)OC(CCCCCCCC)CCCCCCCC)C(=O)SCCN(C)C — within 0.2 log units, 5.82
- CCCCCC/C=C\COC(=O)CCCCCN(CCCCCC(=O)OC(CCCCCCC)CCCCCCC)C(=O)SCCCN(CC)CC — higher, 6.45
- CCCCCC/C=C\COC(=O)CCCCCCN(CCCCCCC(=O)OC(CCCCCC)CCCCCC)C(=O)SCCN(C)C — lower, 5.67
- CCC/C=C/CCC(CC/C=C/CCC)OC(=O)CCCCCCN(CCCCCCC(=O)OC/C=C\CCCCCC)C(=O)SCCN(C)C — lower, 5.68
- CCCCCC/C=C\COC(=O)CCCCCCCN(CCCCCCCC(=O)OC(CCCC)CCCC)C(=O)SCCN(C)C — higher, 6.22
- CCCCCC/C=C\COC(=O)CCCCCCCN(CCCCCCCC(=O)OC(CCCCC)CCCCC)C(=O)SCCN(C)C — within 0.2 log units, 5.81

Test system: Factor VII
Experiment: In vivo mouse Factor VII siRNA knockdown with lipid nanoparticles
Set-up: species or system C57BL/6 mice
Details: dose 0.03 mg/kg, intravenous, mice, 48 hours
Source text: The first pair of numbers denotes the number of carbons in the ester, including the carbonyl, for L1 and L2; the pair of numbers in the parenthesis denotes the number of carbons in each branch of the branched alkyl, R1 or if R2 is also branched, R1/R2 (an asterisk denotes a double bond); the number of carbons in R3 is given; and the last line denotes the substitution for R4 and R5. The ATX number is given for reference herein. Calculated Log D values (c-Log D) and calculated pKa (c-pKa) values are given, as well as measured pKa in parenthesis (measured in the Formulation milieu). The c-Log D and c-pKa values are generated by ACD Labs Structure Designer v12.0. Bioactivity is percentage in vivo Factor VII knockdown at a dose of 0.03 mg/kg, unless otherwise designated.
Using a liver-directed in vivo screen of the liposome libraries, a series of compounds were tested that facilitate high levels of siRNA mediated gene silencing in hepatocytes, the cells comprising the liver parenchyma. Factor VII, a blood-clotting factor, is a suitable target gene for assaying functional siRNA delivery to liver. Because this factor is produced specifically in hepatocytes, gene silencing indicates successful delivery to parenchyma, as opposed to delivery to the cells of the reticulo-endothelial system (e.g., Kupffer cells). Furthermore, Factor VII is a secreted protein that can be readily measured in serum, obviating the need to euthanize animals. Silencing at the mRNA level can be readily determined by measuring levels of protein. This is because the protein's short half-life (2-5 hour). Compositions with siRNA directed to […] were Formulated with the lipid, and comparator sample phosphate-buffered saline (PBS). Female C57BL/6 mice (6-8 week old) were used for FVII siRNA knockdown (KD) experiments.
All Formulations were administered intravenously via tail vein injection at a dose of 0.03 and 0.1 mg/kg at a dosing volume of […]. Terminal blood collection was performed via cardiac puncture under 2% isoflurane at 48 hours after Formulation injections. Blood was collected into 0.109 M citrate buffer tube and processed by centrifugation at 1200 G for 10 min. Plasma was collected and Factor VII protein levels were analyzed by chromogenic assay (Biophen FVII, Aniara Corporation). A standard curve was constructed using samples from PBS-injected mice and relative Factor VII expression was determined by comparing treated groups to untreated PBS control.

Point of comparison: CCC/C=C/CCC(CC/C=C/CCC)OC(=O)CCCCCN(CCCCCC(=O)OC/C=C\CCCCCC)C(=O)SCCN(C)C, “Bioactivity: percentage in vivo Factor VII knockdown” value (“Bioactivity: percentage” for short) 82 percentage. Against it:
- CCCCCCCC(CCCCCCC)OC(=O)CCCN(CCCC(=O)OC(CCCCCCC)CCCCCCC)C(=O)SCCCN(C)C — higher, 99 percentage
- CCCCCCCC(CCCCCCC)OC(=O)CCCN(CCCC(=O)OC(CCCCCCC)CCCCCCC)C(=O)SCCCN(CC)CC — higher, 97 percentage
- CCC/C=C/CCC(CC/C=C/CCC)OC(=O)CCCN(CCCCCC(=O)OC/C=C\CCCCCC)C(=O)SCCN(C)C — lower, 75 percentage
- CCCCCC/C=C\COC(=O)CCCCCN(CCCC(=O)OC(CCCCCCCC)CCCCCCCC)C(=O)SCCN(C)C — lower, 81 percentage
- CCCCCC/C=C\COC(=O)CCCCCN(CCCCC(=O)OC(CCCCCCC)CCCCCCC)C(=O)SCCN(C)C — higher, 90 percentage
- CCCCCC/C=C\COC(=O)CCCCCCCN(CCCC(=O)OC(CCCCCC)CCCCCC)C(=O)SCCN(C)C — lower, 63 percentage
- CCCCCC/C=C\COC(=O)CCCCCCCN(CCCC(=O)OC(CCCCCCC)CCCCCCC)C(=O)SCCN(C)C — lower, 73 percentage
- CCCCCC/C=C\COC(=O)CCCCCN(CCCCCC(=O)OC(CCCCCCC)CCCCCCC)C(=O)SCCN(C)C — higher, 91 percentage
- CCCCCC/C=C\COC(=O)CCCCCN(CCCCCC(=O)OC(CCCCCCCC)CCCCCCCC)C(=O)SCCN(C)C — higher, 85 percentage
- CCCCCC/C=C\COC(=O)CCCCCN(CCCCCC(=O)OC(CCCCCCC)CCCCCCC)C(=O)SCCCN(CC)CC — higher, 95 percentage
- CCCCCC/C=C\COC(=O)CCCCCCN(CCCCCCC(=O)OC(CCCCCC)CCCCCC)C(=O)SCCN(C)C — lower, 66 percentage
- CCC/C=C/CCC(CC/C=C/CCC)OC(=O)CCCCCCN(CCCCCCC(=O)OC/C=C\CCCCCC)C(=O)SCCN(C)C — lower, 67 percentage
- CCCCCC/C=C\COC(=O)CCCCCCCN(CCCCCCCC(=O)OC(CCCC)CCCC)C(=O)SCCN(C)C — lower, 71 percentage
- CCCCCC/C=C\COC(=O)CCCCCCCN(CCCCCCCC(=O)OC(CCCCC)CCCCC)C(=O)SCCN(C)C — lower, 68 percentage
- CCCCCCC(CCCCC)OC(=O)CCCN(CCCCC(=O)OC(CCCCC)CCCCC)C(=O)SCCN(C)C (centres unmarked) [ATX-0085] — lower, 56 percentage

Same assay, conditions: dose 0.1 mg/kg, intravenous, mice, 48 hours

For CCCCCC(CCCCC)OC(=O)CCCN(CCCC(=O)OC(CCCCC)CCCCC)C(=O)SCCCN(C)C, the “Bioactivity: percentage” value was 14 (0.1 mg/ kg) percentage.
For CCCCCC(CCCCC)OC(=O)CCCN(CCCC(=O)OC(CCCCC)CCCCC)C(=O)SCCCN(CC)CC, the “Bioactivity: percentage” value was 27 (0.1 mg/ kg) percentage.
